From patent US8686146B2, “Azaindenoisoquinoline topoisomerase I inhibitors” (Purdue Research Foundation, priority 2012, dated 2014)
Where a name gives a salt, the structure may show the parent alone. Read-outs that look alike come from different tables or passages of the source.

Legend:
[1] = system: HOP-62; assay: NCI screen antiproliferative activity, lung HOP-62
Experimental: (§1) Cells of approximately 60 different human cancer cell lines were incubated for 48 h with five 10-fold dilutions of the tested compounds starting from 100 μM and then treated with sulforhodamine B dye. The ratios of recorded optical densities relative to that of the control were plotted as a function of the common logarithm of the tested compound concentrations. […] The GI50 and the mean graph midpoint (MGM) values of the prepared indenoisoquinolines in selected cell lines are presented in Table I.
(§2) The antiproliferative activity of each compound was determined in the National Cancer Institute (NCI) screen as described above. Cells of approximately 60 different human cancer cell lines were incubated for 48 h with five 10-fold dilutions of the test compounds starting from 100 μM, and then treated with sulforhodamine B dye. The ratios of recorded optical densities relative to those of the control were plotted as a function of the common logarithm of the tested compound concentrations. […] The GI50 and the mean graph midpoint (MGM) values of the prepared (aza)indeno-isoquinolines in selected cell lines are presented in Table 2.

[2] = system: MCF7; assay: NCI screen antiproliferative activity, breast MCF7
Experimental: as §1, §2

[3] = system: DU-145; assay: NCI screen antiproliferative activity, prostate DU-145
Experimental: as §1, §2

[4] = biological target: T1, human recombinant Top1 (Homo sapiens, UniProt P11387); assay: Top1-mediated DNA cleavage assay; assay type: biochemical; conditions: semiquantitative, relative to compounds 1 and 2
T1 construct: made in house
T1 sequence (P11387 1-765): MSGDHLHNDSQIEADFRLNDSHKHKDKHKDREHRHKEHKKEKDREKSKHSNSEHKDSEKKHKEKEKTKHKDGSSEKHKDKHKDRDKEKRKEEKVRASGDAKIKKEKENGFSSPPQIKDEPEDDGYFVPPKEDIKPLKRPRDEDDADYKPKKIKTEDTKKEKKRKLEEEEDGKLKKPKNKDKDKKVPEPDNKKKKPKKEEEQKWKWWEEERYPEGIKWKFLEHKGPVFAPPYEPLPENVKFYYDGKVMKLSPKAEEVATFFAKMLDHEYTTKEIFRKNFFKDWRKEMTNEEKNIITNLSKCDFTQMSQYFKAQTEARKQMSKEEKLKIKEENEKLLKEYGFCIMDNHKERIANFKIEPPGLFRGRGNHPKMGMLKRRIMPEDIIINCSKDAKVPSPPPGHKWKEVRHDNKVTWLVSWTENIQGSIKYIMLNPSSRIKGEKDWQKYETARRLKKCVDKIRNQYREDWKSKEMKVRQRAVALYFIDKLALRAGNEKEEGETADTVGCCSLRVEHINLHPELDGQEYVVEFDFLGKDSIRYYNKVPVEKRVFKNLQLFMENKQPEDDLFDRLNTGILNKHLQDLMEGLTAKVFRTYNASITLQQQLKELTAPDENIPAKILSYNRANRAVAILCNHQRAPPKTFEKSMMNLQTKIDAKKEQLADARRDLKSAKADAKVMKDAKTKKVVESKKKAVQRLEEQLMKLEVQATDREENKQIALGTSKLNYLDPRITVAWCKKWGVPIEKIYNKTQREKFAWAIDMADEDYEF
Experimental: Unincorporated [^32P]dGTP was removed using mini Quick […] columns (Roche, Indianapolis, Ind.), and the eluate containing the […] DNA substrate was collected. […] Aliquots of each reaction mixture were subjected to 20% denaturing PAGE. […] The DNA fragments were separated on a denaturing gel. […] All of the target compounds were tested for induction of DNA damage in Top1-mediated DNA cleavage assays, as described above.

[5] = system: HCT-116; assay: NCI screen antiproliferative activity, colon HCT-116
Experimental: as §1, §2

[6] = system: approximately 60 different human cancer cell lines; assay: NCI screen, mean graph midpoint over all cell lines; assay type: cell-based; conditions: all human cancer cell lines successfully tested, 48 h
Experimental: as §1, §2

[7] = system: OVCAR-3; assay: NCI screen antiproliferative activity, ovarian OVCAR-3
Experimental: as §1, §2

[8] = system: SF-539; assay: NCI screen antiproliferative activity, CNS SF-539
Experimental: as §1, §2

[9] = system: SN12C; assay: NCI screen antiproliferative activity, renal SN12C
Experimental: as §1, §2

[10] = system: UACC-62; assay: NCI screen antiproliferative activity, melanoma UACC-62
Experimental: as §1, §2

[11] = Homo sapiens, HOP-62, 48 h, read-out: cytotoxicity (GI50) lung HOP-62, 48 h, sulforhodamine B, single determination, Table 1
[12] = Homo sapiens, MCF7, 48 h, read-out: cytotoxicity (GI50) breast MCF7, 48 h, sulforhodamine B, single determination, Table 1
[13] = Homo sapiens, HCT-116, 48 h, read-out: cytotoxicity (GI50) colon HCT-116, 48 h, sulforhodamine B, single determination, Table 1
[14] = Homo sapiens, OVCAR-3, 48 h, read-out: cytotoxicity (GI50) ovarian OVCAR-3, 48 h, sulforhodamine B, single determination, Table 1
[15] = Homo sapiens, SN12C, 48 h, read-out: cytotoxicity (GI50) renal SN12C, 48 h, sulforhodamine B, single determination, Table 1
[16] = Homo sapiens, UACC-62, 48 h, read-out: cytotoxicity (GI50) melanoma UACC-62, 48 h, sulforhodamine B, single determination, Table 1

Row | SMILES | Top1 Cleavage ([4]; Table 1) | Top1 Cleavage ([4]; Table 2) | MGM (mean graph midpoint for growth inhibition) ([6]; Table 1) | MGM (mean graph midpoint for growth inhibition) ([6]; Table 2) | GI50 [1] | GI50 [2] | GI50 [3] | GI50 [5] | GI50 [7] | GI50 [8] | GI50 [9] | GI50 [10] | also measured
1 | COc1cc2c3c(n(CCCN(C)C)c(=O)c2cc1OC)-c1ncccc1C3=O [Compound 19, 7-Aza-5,6-dihydro-6-(3-dimethylaminopropyl)-2,3-dimethoxy-5,11-dioxo-11H-indeno[1,2-c]isoquinoline Hydrochloride] | +++ | +++ | 4.50 µM | 4.5 µM |  |  |  |  |  |  |  |  | GI50 [1, 11]: 3390 nM; GI50 ([1]; Homo sapiens, HOP-62, 48 h, read-out: cytotoxicity (GI50) lung HOP-62, 48 h, sulforhodamine B, single determination, Table 2): 3400 nM; GI50 [2, 12]: 440 nM; GI50 ([3]; Homo sapiens, DU-145, 48 h, read-out: cytotoxicity (GI50) prostate DU-145, 48 h, sulforhodamine B, single determination, Table 2): 1700 nM; GI50 [5, 13]: 1580 nM; GI50 ([5]; Homo sapiens, HCT-116, 48 h, read-out: cytotoxicity (GI50) colon HCT-116, 48 h, sulforhodamine B, single determination, Table 2): 1600 nM; GI50 [7, 14]: 3550 nM; GI50 ([7]; Homo sapiens, OVCAR-3, 48 h, read-out: cytotoxicity (GI50) ovarian OVCAR-3, 48 h, sulforhodamine B, single determination, Table 2): 3600 nM; GI50 ([8]; Homo sapiens, 48 h, read-out: cytotoxicity (GI50) CNS SF-539, 48 h, sulforhodamine B, single determination, Table 2): 4100 nM; GI50 [9, 15]: 3160 nM; GI50 ([9]; Homo sapiens, SN12C, 48 h, read-out: cytotoxicity (GI50) renal SN12C, 48 h, sulforhodamine B, single determination, Table 2): 3200 nM; GI50 [10, 16]: 13200 nM; GI50 ([10]; Homo sapiens, UACC-62, 48 h, read-out: cytotoxicity (GI50) melanoma UACC-62, 48 h, sulforhodamine B, single determination, Table 2): 13000 nM
2 | COc1cc2c3c(n(CCCN4CCOCC4)c(=O)c2cc1OC)-c1ncccc1C3=O [Compound 22, 7-Aza-5,6-d hydro-6-(3-morpholinopropyl)-2,3-dimethoxy-5,11-dioxo-11H-indeno[1,2-c]isoquinolineHydrochloride] | ++ | ++ | 0.30 µM | 0.30 µM | 300 nM | 52 nM | 310 nM | 220 nM | 370 nM | 290 nM | 520 nM |  | 
3 | O=C1c2cccnc2-c2c1c1ccccc1c(=O)n2CCCn1ccnc1 [Compound 28, 7-Aza-5,6-dihydro-6-(3-(1H-imidazol-1-yl)propyl)-5,11-dioxo-11H-indeno[1,2-c]isoquinoline] | ++ |  | 7.24 µM |  | 7240 nM | 3390 nM | 2880 nM | 1200 nM | 8710 nM | 5130 nM | 3720 nM | 35500 nM | 
4 | Cl.O=C1c2cccnc2-c2c1c1ccccc1c(=O)n2CCCNCCO [Compound 30, 7-Aza-5,6-dihydro-6-(3-(2-hydroxyethylamino)propyl)-5,11-dioxo-11H-indeno[1,2-c]isoquinoline Hydrochloride] | + (+ weak activity;) |  | 1.29 µM |  | 1410 nM | 480 nM | 410 nM | 300 nM | 1550 nM | 870 nM | 760 nM | 3090 nM | 
5 | COc1cc2c3c(n(CCCN(C)C)c(=O)c2cc1OC)-c1ccccc1C3=O [Compound 34, reference compound] |  |  | 6.17 µM |  |  |  |  |  |  |  |  |  | GI50 [1, 11]: 11500 nM; GI50 [2, 12]: 6170 nM; GI50 ([3]; Homo sapiens, DU-145, 48 h, read-out: cytotoxicity (GI50) prostate DU-145, 48 h, sulforhodamine B, single determination, Table 1): 4470 nM; GI50 [5, 13]: 2450 nM; GI50 [7, 14]: 5890 nM; GI50 ([8]; Homo sapiens, 48 h, read-out: cytotoxicity (GI50) CNS SF-539, 48 h, sulforhodamine B, single determination, Table 1): 6170 nM; GI50 [9, 15]: 11000 nM; GI50 [10, 16]: 6610 nM
6 | COc1cnc2c(c1)C(=O)c1c-2n(CCCN(C)C)c(=O)c2cc(OC)c(OC)cc12.Cl [Compound 55, 7-Aza-5,6-dihydro-6-(3-dimethylaminopropyl)-2,3,9-trimethoxy-5,11-dioxo-11H-indeno[1,2-c]isoquinoline Hydrochloride] |  | +++ |  | 1.8 µM | 920 nM | 130 nM | 880 nM | 1500 nM | 2900 nM | 1100 nM | 3600 nM | 3900 nM | 
7 | COc1cnc2c(c1)C(=O)c1c-2n(CCCN2CCOCC2)c(=O)c2cc(OC)c(OC)cc12.Cl [Compound 56, 7-Aza-5,6-dihydro-6-[3-(4-morpholino)propyl]-2,3,9-trimethoxy-5,11-dioxo-11H-indeno[1,2-c]isoquinoline Hydrochloride] |  | ++ |  | 0.48 µM | 240 nM | 100 nM | 340 nM | 330 nM | 310 nM | 270 nM | 340 nM | 220 nM | 
8 | COc1cnc2c(c1)C(=O)c1c-2n(CCCN(C)C)c(=O)c2ccccc12 [Compound 63, 7-Aza-5,6-dihydro-6-(3-dimethylaminopropyl)-9-methoxy-5,11-dioxo-11H-indeno[1,2-c]isoquinoline] |  | +++ |  | 0.40 µM | 300 nM | 210 nM | 300 nM | 340 nM | 940 nM | 570 nM | 260 nM | 540 nM | 
9 | COc1cnc2c(c1)C(=O)c1c-2n(CCCN2CCOCC2)c(=O)c2ccccc12 [Compound 64, 7-Aza-5,6-dihydro-6-(3-(4-morpholino)propyl)-9-methoxy-5,11-dioxo-11H-indeno[1,2-c]isoquinoline] |  | ++ |  | 3.0 µM | 4100 nM | 600 nM | 3600 nM | 2500 nM | 6300 nM | 3500 nM | 2600 nM | 1700 nM | 
10 | COc1cnc2c(c1)C(=O)c1c-2n(CCCN(C)C)c(=O)c2cc([N+](=O)[O-])ccc12 [Compound 65, 7-Aza-5,6-dihydro-6-(3-dimethylaminopropyl)-9-methoxy-3-nitro-5,11-dioxo-11H-indeno[1,2-c]isoquinoline] |  | +++ |  | 0.11 µM | 54 nM | 24 nM | 51 nM | 74 nM | 140 nM | 78 nM | 57 nM | 52 nM | 
11 | COc1cnc2c(c1)C(=O)c1c-2n(CCCN2CCOCC2)c(=O)c2cc([N+](=O)[O-])ccc12 [Compound 66, 7-Aza-5,6-dihydro-6-(3-(4-morpholino)propyl)-9-methoxy-3-nitro-5,11-dioxo-11H-indeno[1,2-c]isoquinoline] |  | ++++ (++++ similar activity as 1 μM 1.) |  | 0.085 µM | 51 nM | 20 nM | 40 nM | 50 nM | 110 nM | 35 nM | 43 nM | 40 nM | 
